Assay results taken from patent publication US8003773B2, “Polynucleotides encoding MHC class I-restricted hTERT epitopes, analogues thereof or polyepitopes” (Institut Pasteur, priority 2005, dated 2011).

Each substance was assayed on peptide loaded RMA-B7 target cells (assay: Peptide immunization of HLA-*B0702 transgenic mice for CTL induction, 51Cr release assay). Conditions: HLA-*B0702 transgenic mice.
Format: in vivo
Description: Female HLA-*B0702 transgenic mice at 8-10 weeks of age were injected subcutaneously (s.c.) at the base of the tail with 50 μg of individual HLA-B0702 restricted hTERT peptides supplemented with 140 μg of helper peptide co-emulsified in incomplete Freund's adjuvant (Difco, Detroit, Mich.). Ten days later, spleen cells of individual mouse were re-activated in vitro with relevant peptide in six wells plate. Effector CTL cells were tested in a standard 4-5 h ^51Cr-release assay, using relevant or negative control peptide-pulsed, HLA-*B0702 transfected RMA cells (RMA-B7). Mice were considered as responders, when specific lysis ≧10% was observed.
(§1) Cytotoxicity assays were performed by using standard 4-5 h ^51Cr release assay as previously described (Firat et al. J Gene Med 2002; 4:38-45). Specific lysis in % was calculated by subtracting non-specific lysis observed with the control peptide. Mice were considered as responsers when specific lysis ≧10% was observed.

Substance	CTL response after peptide immunization
APRCRAVRSL [p4]	strong CTL response in all mice tested
APSFRQVSCL [p68]	strong CTL response in all mice tested
RPAEEATSL [p277]	moderate specific CTL
RPSFLLSSL [p342]	moderate specific CTL

Same assay, conditions: peptide immunization

Substance	mice tested generating specific CTL
RPAEEATSL [p277]	50 % of mice tested
RPSFLLSSL [p342]	50 % of mice tested

Same assay, conditions: peptide immunization, six mice per peptide

Substance	R/T: responder (specific lysis ≧ 10%) versus tested mice
APRCRAVRSL [p4]	6/6
APSFRQVSCL [p68]	6/6
MPRAPRCRA [p1]	4/6
RPAEEATSL [p277]	3/6
RPSFLLSSL [p342]	3/6
RPSLTGARRL [p351]	4/6

What follows are substances tested on RMA-B7 targets loaded with relevant peptides (assay: DNA immunization (hTERT) in HLA-*B0702 transgenic mice, peptide-specific CTL). Conditions: immunised with cDNA encoding hTERT; FIG. 2.
Format: in vivo
Description: HLA-B7 Tg mice and one naïve mice (N) were immunized with 100 μg DNA encoding Htert. On day 14, spleen cells from each mouse were separately in vitro stimulated with different hTERT-derived peptides. Effector cells were essayed 6 days later against RMA-B7 targets loaded with relevant (▪) or control (□) peptides as described in the material and methods. Percentage of lysis at a 60/1 ratio are shown (results from two independent experiments).
The LvCMV-hTERT plasmid vector encoding the hTERT gene under the control of CMV promotor was purified on plasmid Giga kit columns under endotoxin-free conditions (Qiagen). Anesthetized HLA-*B0702 Transgenic mice were injected with said plasmid (50 μg each side) into regenerating tibialis anterior muscles. 14 days after, spleen cells of individual mouse were re-activated in vitro with peptide-pulsed (10 μg/ml), syngenic γ-irradiated (50 Gy) LPS-lymphoblast in complete medium, supplemented with 10% supernatant from Con A-activated rat spleens cells. Cytotoxicity assays were performed 6 days as described.
as §1

Substance	mice with hTERT peptide-specific CTLs induced
RPSFLLSSL [p342]	about 15 % of mice

The substances below were run on T2-B7 cells (assay: Induction of primary CTL responses from healthy donors' PBMC by hTERT peptides). Conditions: HLA-B0702 healthy donors, in vitro immunization; FIG. 3.
Format: cell-based, human
Excerpt: T-lymphocyte cells from HLA-*B0702^+ healthy donors were activated with each of the six hTERT peptide-pulsed autologous PBMC as detailed in materials and Method. After four rounds of weekly stimulation, effector cells, pulsed with relevant (▪) or control (□) peptides, were essayed for lytic activity against ^51Cr-labeled T2-B7 cells. Percentage of lysis at a 20/1 effector-target ratio is shown. Results from 8 out of 10 donors are presented (d1 to d8).
(§2) Human CTL from donors were obtained after in vitro re-activated PBMC for 4 weeks with hTERT peptide HLA-B0702 restricted as described previously (Hernandez et al. Proc Natl Acad Sci U.S.A. 2002; 99:12275-80). Briefly, Ficoll-purified human PBMCS were thawed and incubated (4×10^6/well) in 24-well plates in RPMI 1640, 1 mM sodium pyruvate, 100 IU/ml penicillin, 100 μg/ml streptomycin, 10 mM HEPES, 5×10^-5 M 2-mercaptoethanol supplemented with heat inactivated 10% human serum (Institut Jacques Boy, Reims, France). They were stimulated with each hTERT peptide (10 μg/ml) and recombinant human IL-7 (20 ng/ml; R&D Systems) was added.
On day 7, lymphocytes were re-activated with peptide-pulsed γ-irradiated autologous PBMCs (50 Gy). The next day, 20 IU/ml human IL-2 (Roche, Mannheim, Germany) was added to the culture. CTL lines were re-activated weekly during four cycles. […]

Substance	donors with peptide-specific CTL responses
RPSFLLSSL [p342]	20 % of donors

Each substance was assayed on human tumour cell lines of different origins (assay: Capacity of hTERT-specific CTLs from donors to lyse human tumour cell lines of different origins (summary)). Conditions: CTL lines generated in vitro from healthy donors.
Format: cell-based
Description: as §1, §2
On day 7, lymphocytes were re-activated with peptide-pulsed γ-irradiated autologous PBMCs (50 Gy). The next day, 20 IU/ml human IL-2 (Roche, Mannheim, Germany) was added to the culture. CTL lines were re-activated weekly during four cycles. For some donors, CD8^+ T cells were purified after three round cycle, using CD8 microbeads (Miltenyi Biotec, Bergisch Gladbach, Germany.) according to manufacturer's recommendations and activated once before functional test. Cytolytic assays were performed 6 days after the last re-activation against various ^51Cr-labeled targets: T2-B7 pulsed with tested hTERT peptides or irrelevant peptide, or tumor cell lines.

Substance	tumor cell recognition by CTL lines specific for the peptide
APRCRAVRSL [p4]	do not lyse all the type of tested tumors
APSFRQVSCL [p68]	only recognize the T1-B7 targets
MPRAPRCRA [p1]	only recognize the T1-B7 targets
RPAEEATSL [p277]	recognize renal cancer (293 UT) but neither melanoma nor lymphoid tumor cells
RPSFLLSSL [p342]	recognize only melanoma cells (LB 34 and KU 268 target)
RPSLTGARRL [p351]	recognize the majority of tumor cell lines tested

These substances were tested on hTERT peptide-pulsed target cells (assay: Lv-hTERT immunization of HLA-B7 Tg mice, CTL response in chromium release assay). Conditions: Flap+ Lv-hTRT immunization, by restimulating peptide.
Format: in vivo
Description: (§3) Immunization with TRIPLv-hTERT was performed as a single subcutaneously (at the base of the tail) injection of 1500 ng of TripLv-hTERT suspension or control vector.
(§4) 12 days later, hTERT peptide-specific T among splenocytes were detected by an ELISPOT assay (see below). Cytotoxicity assays were performed on the same immune splenocyte populations after in vitro stimulation with peptide-pulsed as described above.
Mice were considered as responsers when specific lysis ≧10% was observed.

Substance	R/T
APRCRAVRSL [p4]	6/8
APSFRQVSCL [p68]	4/8
MPRAPRCRA [p1]	4/8
RPAEEATSL [p277]	5/8
RPSFLLSSL [p342]	4/8
RPSLTGARRL [p351]	5/8

What follows are substances tested on hTERT peptide-pulsed target cells (assay: Lv-hTERT immunization of HHD mice (HLA-A2.1), CTL response in chromium release assay). Conditions: HHD mice immunized with Lv-hTERT.
Format: in vivo
Description: as §3, §4, §1

Substance	CTL responses specific for HLA-A2.1 restricted epitopes
p540: HLA-A2.1-restricted hTERT-derived peptide, epitope previously classified as dominant (ILAKFLHWL; UniProt O14746 540-548, looked up, fragment)	potent CTL responses

Same assay, conditions: HHD mice, Flap+ Lv-hTRT immunization; by restimulating peptide

Substance	R/T
p540: HLA-A2.1-restricted hTERT-derived peptide, epitope previously classified as dominant (ILAKFLHWL; UniProt O14746 540-548, looked up, fragment)	2/6
